Calls of active or inactive are those of the source. The rule behind the calls is not given here.
Experiments:
[1] = molecular target: T1, Casein kinase II subunit alpha (Homo sapiens, UniProt P68400); experiment: Displacement of ARC-1504/ARC-1513-5O from CK2alpha (unknown origin) (1 to 335 residues) after 15 to 60 mins by luminescence assay
[2] = molecular target: T1, Casein kinase II subunit alpha; experiment: Displacement of ARC-1504/ARC-1513-5O from CK2alpha (unknown origin) (1 to 335 residues) assessed as photoluminescence lifetime using non-deoxygenated solution after 15 to 60 mins by luminescence assay
[3] = molecular target: T1, Casein kinase II subunit alpha; experiment: Displacement of ARC-1504/ARC-1513-5O from CK2alpha (unknown origin) (1 to 335 residues) assessed as maximal luminescence intensity of the complex after 15 to 60 mins by luminescence assay relative to ARC-1527
[4] = molecular target: T1, Casein kinase II subunit alpha; experiment: Displacement of 5-TAMRA-labeled ARC-1530 from CK2alpha (unknown origin) (1 to 335 residues) after 15 to 60 mins by luminescence assay
[5] = molecular target: Casein kinase II subunit alpha' (Homo sapiens) (UniProt P19784); experiment: Displacement of ARC-1504/ARC-1513-5O from CK2alpha' (unknown origin) (1 to 335 residues) assessed as photoluminescence lifetime using non-deoxygenated solution after 15 to 60 mins by luminescence assay
[6] = molecular target: T1, Casein kinase II subunit alpha; experiment: Displacement of ARC-1504/ARC-1513-5O from CK2alpha (unknown origin) (1 to 335 residues) assessed as photoluminescence lifetime using deoxygenated solution after 15 to 60 mins by luminescence assay
[7] = species: Mus musculus; experiment: Binding affinity to CK2 in mouse NIH3T3 cell lysate at 10 nM by luminescence assay
[8] = molecular target: T2, Casein kinase II subunit alpha (Mus musculus) (UniProt Q60737); experiment: Binding affinity to RFP-tagged CK2alpha in mouse NIH/3T3 cell lysate at 10 nM by luminescence assay
T2 sequence (whole entry): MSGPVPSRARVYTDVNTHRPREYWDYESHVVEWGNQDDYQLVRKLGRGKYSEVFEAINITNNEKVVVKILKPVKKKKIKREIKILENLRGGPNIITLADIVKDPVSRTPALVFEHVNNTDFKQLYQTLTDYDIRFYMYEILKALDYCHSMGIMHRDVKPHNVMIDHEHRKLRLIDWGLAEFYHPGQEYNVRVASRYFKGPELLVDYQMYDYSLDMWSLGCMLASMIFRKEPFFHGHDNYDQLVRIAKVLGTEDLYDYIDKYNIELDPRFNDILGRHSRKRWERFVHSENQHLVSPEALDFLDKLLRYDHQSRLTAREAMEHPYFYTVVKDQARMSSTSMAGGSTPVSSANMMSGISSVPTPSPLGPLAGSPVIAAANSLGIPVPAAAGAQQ

[9] = molecular target: T2, Casein kinase II subunit alpha (Mus musculus); experiment: Binding affinity to RFP-tagged CK2alpha in mouse NIH/3T3 cell lysate at 10 nM by luminescence assay relative to native CK2
[10] = species: Mus musculus; experiment: Binding affinity to CK2 in mouse NIH3T3 cell lysate at 10 nM in presence of CK2 inhibitor CX-4945 by luminescence assay
[11] = molecular target: T2, Casein kinase II subunit alpha (Mus musculus); experiment: Binding affinity to RFP-tagged CK2alpha in mouse NIH/3T3 cell lysate at 10 nM in presence of CK2 inhibitor CX-4945 by luminescence assay

Kd [1] | Time [2] | fold change (FC) [3] | Activity [4] | Time [5] | Time [6] | Activity [7] | Activity [8] | fold change (FC) [9] | Activity [10] | Activity [11] | Structure (SMILES)
0.34 nM | 55 microsec | 46 | Active |  |  |  |  |  |  |  | NCCCC[C@@H](NC(=O)[C@@H](CC(=O)O)NC(=O)[C@@H](CC(=O)O)NC(=O)[C@@H](CC(=O)O)NC(=O)[C@@H](CC(=O)O)NC(=O)[C@@H](CC(=O)O)NC(=O)[C@@H](CC(=O)O)NC(=O)CCCCCNC(=O)CCC(=O)Nc1ncc(-c2ccc(C(=O)O)cc2)[se]1)C(=O)O
0.85 nM | 39 microsec | 5300 |  | 39 microsec | 58 microsec | Active | Active | 10 | inactive | inactive | CN(C)c1ccc2c(-c3ccc(C(=O)NCCCC[C@@H](NC(=O)[C@@H](CC(=O)O)NC(=O)[C@@H](CC(=O)O)NC(=O)[C@@H](CC(=O)O)NC(=O)[C@@H](CC(=O)O)NC(=O)[C@@H](CC(=O)O)NC(=O)[C@@H](CC(=O)O)NC(=O)CCCCCNC(=O)CCC(=O)Nc4ncc(-c5ccc(C(=O)O)cc5)[se]4)C(=O)O)cc3C(=O)[O-])c3ccc(=[N+](C)C)cc-3oc2c1
0.4 nM | 62 microsec | 76 |  | 62 microsec | 165 microsec |  |  |  |  |  | CN(C)c1ccc2c(-c3ccc(C(=O)NCCCC[C@@H](NC(=O)[C@@H](CC(=O)O)NC(=O)[C@@H](CC(=O)O)NC(=O)[C@@H](CC(=O)O)NC(=O)[C@@H](CC(=O)O)NC(=O)[C@@H](CC(=O)O)NC(=O)[C@@H](CC(=O)O)NC(=O)CCCCCNC(=O)CCC(=O)Nc4ncc(-c5ccc(C(=O)O)cc5)s4)C(=O)O)cc3C(=O)[O-])c3ccc(=[N+](C)C)cc-3oc2c1
48 nM |  |  |  |  |  |  |  |  |  |  | Nc1ncc(-c2ccc(C(=O)O)cc2)s1

— ChEMBL document CHEMBL4152360 (Bioorg Med Chem, 2018)
